# ± gives the standard deviation of the averaged measurements.
# Columns and labels:
# [1] = tested on: Homo sapiens (human subject panel, olfactory perception); test: perceived odor familiarity rating (rating 0-100); higher = more familiar
# Method in brief: (§1)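 Values for familiarity, intensity and pleasantness are averaged over subjects. The panel of 55 healthy people aged 18–50 excluded the six lowest performers and rated each paraffin-oil dilution of a molecule at high and low concentrations. Ratings were made only for stimuli the subject reported smelling, on a slider converted to a 0–100 scale.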
# [2] = tested on: Homo sapiens (human subject panel, olfactory perception); test: perceived odor intensity rating (rating 0-100); higher = stronger perceived smell
# Method in brief: as §1
# [3] = tested on: Homo sapiens (human subject panel, olfactory perception); test: perceived odor pleasantness rating (rating 0-100); higher = more pleasant
# Method in brief: as §1
# [4] = odor dilution in paraffin oil: 1/1,000
# [5] = odor dilution in paraffin oil: 1/100,000
# [6] = odor dilution in paraffin oil: 1/10
# [7] = odor dilution in paraffin oil: 1/10,000,000
Structure (SMILES),"perceived odor familiarity rating [1, 4]","perceived odor familiarity rating [1, 5]","perceived odor intensity rating [2, 4]","perceived odor intensity rating [2, 5]","perceived odor pleasantness rating [3, 4]","perceived odor pleasantness rating [3, 5]","perceived odor familiarity rating [1, 6]","perceived odor intensity rating [2, 6]","perceived odor pleasantness rating [3, 6]","perceived odor familiarity rating [1, 7]","perceived odor intensity rating [2, 7]","perceived odor pleasantness rating [3, 7]"
COC(=O)c1ccccc1N [Methyl anthranilate],61.8 ± 31,56.7 ± 30,74.6 ± 18,58.3 ± 30,65.3 ± 24,64 ± 25,,,,,,
COc1cc(C)ccc1C(C)C [1-Methyl-3-methoxy-4-isopropylbenzene],51.6 ± 30,42.9 ± 35,45.5 ± 28,23.1 ± 25,43.8 ± 21,47.5 ± 18,,,,,,
IC(I)I [Iodoform],51.2 ± 29,,68.4 ± 23,,36.4 ± 22,,52.6 ± 33,84.4 ± 16,30.7 ± 26,,,
COc1cc(C=O)ccc1OC(C)=O [Vanillin Acetate],65.3 ± 28,,54.6 ± 27,,72.5 ± 22,,69.6 ± 28,64.3 ± 26,74.3 ± 22,,,
CC/C=C\CCC=O [cis-4-Heptenal],,46.1 ± 33,,66.8 ± 29,,28.7 ± 25,,,,45.2 ± 31,56.2 ± 31,32.5 ± 26
CCCCOC(=O)CCC [butyl butyrate],49.7 ± 28,41.3 ± 30,57.9 ± 27,25.5 ± 29,38.1 ± 26,48 ± 24,,,,,,
N[C@@H](CC(=O)O)C(=O)O [Aspartic Acid],40 ± 30,,29.7 ± 30,,35 ± 23,,46.6 ± 32,63.6 ± 27,32.1 ± 28,,,
CCC(C)=O [2-butanone],34.9 ± 32,27.4 ± 31,33 ± 33,19.4 ± 26,43.3 ± 28,49.6 ± 29,,,,,,
Cc1ccccc1S [o-Toluenethiol],,54.8 ± 28,,72.8 ± 24,,24.8 ± 24,,,,36.9 ± 24,30.2 ± 31,47.9 ± 18
CCOC(=O)CCSCc1ccco1 [Ethyl 3-(furfurylthio)propionate],,50.2 ± 32,,77.8 ± 18,,19.6 ± 22,,,,41.6 ± 32,58.7 ± 28,32.3 ± 24
CC(C)c1ccc(C=O)cc1 [cuminaldehyde],50.9 ± 35,31.3 ± 26,59.1 ± 31,16.2 ± 20,51.2 ± 28,58.1 ± 26,,,,,,
CCCCCCOC(C)=O [hexyl acetate],58.2 ± 30,29.9 ± 26,58 ± 30,12.7 ± 17,63.1 ± 24,53.7 ± 23,,,,,,
CCOC(=O)/C=C/c1ccccc1 [ethyl cinnamate],43.8 ± 29,43.3 ± 27,61.5 ± 29,55.2 ± 27,54.8 ± 26,63.1 ± 24,,,,,,
CCOC(=O)c1ccco1 [Ethyl 2-furoate],36.6 ± 29,,40.3 ± 34,,42.8 ± 24,,47.9 ± 33,87.4 ± 14,32 ± 28,,,
NC(=O)CC[C@H](N)C(=O)O [L-Glutamine],32.6 ± 26,35.8 ± 30,29.1 ± 28,19 ± 27,51.7 ± 21,49.6 ± 27,,,,,,
CC(C)CCOC(=O)/C=C/c1ccccc1 [Isoamyl cinnamate],25.2 ± 25,40.7 ± 32,18.9 ± 23,22.5 ± 26,38.8 ± 23,56.7 ± 24,,,,,,
CCCCCC/C=C\CO [cis-2-Nonen-1-ol],46.3 ± 30,40.8 ± 30,77.9 ± 21,54.7 ± 32,34.7 ± 25,36 ± 21,,,,,,
Sc1ccccc1 [Benzenethiol],,45.1 ± 30,,63.4 ± 34,,24.6 ± 23,,,,31.3 ± 28,13 ± 22,41.9 ± 24
CCOc1cc(C=O)ccc1O [Ethyl Vanillin],77.3 ± 26,,71 ± 26,,83.9 ± 17,,79.8 ± 22,75.3 ± 20,84.3 ± 20,,,
C=CCc1ccc(OC(C)=O)c(OC)c1 [Eugenyl Acetate],61.4 ± 28,37.7 ± 30,52.3 ± 30,21.1 ± 28,63.9 ± 23,58 ± 25,,,,,,
COc1cnccn1 [2-Methoxypyrazine],51.9 ± 34,52.6 ± 30,68.3 ± 29,41.6 ± 30,37.3 ± 30,54.8 ± 26,,,,,,
CCCC=O [butyraldehyde],51.1 ± 29,41.8 ± 31,83.4 ± 15,51.9 ± 28,17.7 ± 18,32.2 ± 21,,,,,,
CC1CCC(=O)O1 (configuration not stated) [gamma-valerolactone],38.9 ± 31,29.3 ± 28,26.9 ± 30,14.7 ± 20,51.4 ± 25,51.3 ± 22,,,,,,
CCC(C)CO (configuration not stated) [2-Methyl-1-butanol],43.7 ± 29,43.3 ± 31,56.2 ± 33,32.2 ± 26,38.4 ± 24,48.6 ± 21,,,,,,
C/C(=C\CO)CCC[C@H](C)CCC[C@H](C)CCCC(C)C [Phytol],25.4 ± 33,,19.8 ± 26,,44.2 ± 30,,47.1 ± 32,68.8 ± 26,28.1 ± 21,,,
O=Cc1ccc(O)cc1 [4-Hydroxybenzaldehyde],39.1 ± 31,,37.6 ± 27,,51.8 ± 23,,39.5 ± 25,51.6 ± 29,49.2 ± 24,,,
C=C(C)[C@@H]1CC[C@@H](C)C(=O)C1 [D-Dihydrocarvone],47.2 ± 28,,45.9 ± 29,,50.2 ± 23,,52.5 ± 34,81.9 ± 16,39.5 ± 26,,,

# From the supplement of paper PMC4977894
